Article PMC4596572, “Ligand Discovery for the Alanine-Serine-Cysteine Transporter (ASCT2, SLC1A5) from Homology Modeling and Virtual Screening” (PLoS Computational Biology, 2015)

Columns and labels:
[1] = test system: C8161 human melanoma cells; test: Annexin V/propidium iodide apoptosis assay by flow cytometry; type: cell-based; conditions: 5 mM, 48 hours
Method: (§1) Glutamine is a conditionally essential amino acid required for cancer cell growth, being used as fuel source for the TCA cycle, and a carbon and nitrogen source for macromolecule production. We therefore examined cell viability in the presence of chloroalanine (5 mM), AOC (5 mM) and γ-FBP (5 mM) using an MTT assay in C8161 cells (Methods).
Cells (5 × 10^5 per well) were seeded in 24 well plates, allowed to adhere overnight, and then incubated in the presence of 5 mM chloroalanine, AOC or γ-FBP for 48 hours. Cells were detached using Tryple and resuspended in 300 μL of binding buffer (HEPES-buffered PBS supplemented with 2.5 mM calcium chloride) with Annexin V-APC (BD) and incubated for 15 min in the dark at room temperature. Propidium iodide solution (5 μg/mL) was added, and the cells were analyzed using the BD LSRFortessa and FlowJo software.

[2] = test system: C8161 human melanoma cells; test: MTT cell viability assay; type: cell-based; conditions: 5 mM
Method: as §1
Human melanoma cell line C8161 culture was performed as previously described. Media used was DMEM/F12 medium (Life Technologies) containing 5% (v/v) fetal bovine serum (FBS), penicillin-streptomycin solution (Sigma-Aldrich). Cells were maintained at 37°C in a fully humidified atmosphere containing 5% CO2. Inhibitors (chloroalanine, AOC and γ-FBP) were resuspended in H2O, with control cells treated with the appropriate concentrations of vehicle alone.
MTT (3–(4,5–dimethylthiazol–2–yl)–2,5–diphenyl […] bromide; Millipore) cell viability assay was performed as previously described. Briefly, C8161 cells (1 × 10^4/well) were seeded in a flat-bottomed 96–well plate, incubated overnight in media, prior to culture with or without each inhibitor. MTT solution (10 μL) was added to each well for 4 h, prior to addition of 100 μL of isopropanol/HCl solution. Solution was mixed thoroughly and plates immediately read at 570 nm/630 nm in a PolarStar plate reader (BMG). Results were plotted as percentages of the absorbance observed in control wells.

[3] = test system: ASCT2 protein levels in C8161 cells; test: Western blotting of ASCT2 protein levels; type: cell-based, human; conditions: 5 mM, 48 hours
Method: To ensure these inhibitory effects were not due to changes in ASCT2 protein levels, we examined ASCT2 protein levels by Western blotting 48 hours after incubation with chloroalanine (5 mM), AOC (5 mM) or γ-FBP (5 mM) (Fig 8J). […] For example, γ-FBP is an inhibitor that deprives the cancer cells from nutrients and the activator Chloroalanine can potentially be further developed as a cytotoxic ligand.
Cells (5 × 10^5 per well) were seeded in 24 well plates, allowed to adhere overnight, and then incubated in the presence of 5 mM chloroalanine, AOC or γ-FBP for 48 hours. Cells were detached using Tryple and lysed in lysis buffer (50 μL; 20 mM Tris-HCl, 150 mM NaCl, 1% Triton X-100, 0.5% Na deoxycholate, 0.1% SDS) with protease inhibitor Cocktail III (Bioprocessing Biochemical, California). Protein was measured using micro-BCA method (Pierce) and loaded onto a 4–12% gel (Life Technologies), electrophoresed, and transferred to PVDF membrane. The membrane was blocked with 2.5% (w/v) BSA in PBS-Tween20, and incubated with primary (ASCT2, Cell Signaling; GAPDH, Abcam) and secondary antibodies. Secondary HRP-labeled antibodies (Millipore) were detected using chemiluminescence reagents (Pierce) on a Kodak imager (Kodak).

Row | Compound | Apoptosis (early Annexin V+PI-, late Annexin V+PI+) [1] | Cell viability (MTT) [2] | ASCT2 protein levels [3]
1 | O=C(O)C1CC(Cc2ccccc2F)CN1 (stereo not drawn) [γ-FBP] | neither AOC nor γ-FBP led to a significant increase | significantly inhibited cell viability | no change
2 | NC(CCl)C(=O)O (stereo not drawn) [Chloroalanine] | significantly increased apoptosis | significantly inhibited cell viability | reduced the levels of ASCT2 protein
3 | NC1(C(=O)O)COC1 | neither AOC nor γ-FBP led to a significant increase | significantly inhibited cell viability | no change
